Data: article PMC7897990, “TriTOX: A novel Trichomonas vaginalis assay platform for high-throughput screening of compound libraries” (International Journal for Parasitology: Drugs and Drug …, 2021)
Like-named read-outs stand apart in the source and are kept apart here.

Columns and labels:
[1] = system: Trichomonas vaginalis G3 trophozoites; conditions: for T.vaginalis_Absorbance_Rep1: replicate 1, raw absorbance; for T.vaginalis_Absorbance_Rep2: replicate 2, raw absorbance
[2] = system: nontumorigenic neonatal foreskin fibroblast (NFF) cell line
[3] = HTS, parasite screen at 1 µg/mL, replicate 1
[4] = HTS, parasite screen at 1 µg/mL
[5] = HTS, parasite screen at 1 µg/mL, replicate 2
[6] = HTS single concentration, parasite screen 1 µg/mL, replicate 1
[7] = HTS single concentration, parasite screen 1 µg/mL, replicate 2
[8] = NFF_NS1 screen 5 µg/mL, single concentration
[9] = replicate 1, parasite screen at 1 µg/mL
[10] = replicate 2, parasite screen at 1 µg/mL
[11] = HTS replicate 1, parasite screen 1 µg/mL
[12] = HTS replicate 2, parasite screen 1 µg/mL
[13] = NFF fibroblasts, single concentration 5 µg/mL
[14] = parasite screen at 1 µg/mL, replicate 1
[15] = parasite screen at 1 µg/mL, replicate 2
[16] = NFF_NS1 screen at 5 µg/mL, NFF cells

Compound: CC1=CC(O/C=C2\CCOC2=O)OC1=O (centres unmarked) [GR5]
- T.vaginalis_%inb_Rep1 [1, 3]: 9.60%
- T.vaginalis_Absorbance_Rep1 [1, 4]: 0.948
- T.vaginalis_%inb_Rep2 [1, 5]: 13.10%
- T.vaginalis_Absorbance_Rep2 [1, 4]: 0.852
- NFF_Activity ([2]; NFF_NS1 screen at 5 µg/mL): I (otherwise these were reported as inactive (I))

Compound: COc1cc2c(c3oc(=O)c4c(c13)CCC4=O)[C@@H]1CCO[C@@H]1O2 [BIA-A1233]
- T.vaginalis_%inb_Rep1 [1, 6]: 13.46%
- T.vaginalis_%inb_Rep2 [1, 7]: 11.14%
- NFF_Activity [2, 8]: I (otherwise these were reported as inactive (I))

Compound: CCC[C@@H]1C[C@@H](C(=O)N[C@@H]([C@H]2O[C@H](SC)[C@H](O)[C@@H](O)[C@H]2O)[C@@H](C)O)N(C)C1 [BIA-L1457]
- T.vaginalis_%inb_Rep1 [1, 9]: 12.27%
- T.vaginalis_%inb_Rep2 [1, 10]: 9.94%
- NFF_Activity ([2]; NFF cells, screen at 5 µg/mL): I (otherwise these were reported as inactive (I))

Compound: COc1cc(C)c(C(=O)O)c(OC)c1 [Orsellinic acid dimethylether]
- T.vaginalis_%inb_Rep1 [1, 11]: 12.73%
- T.vaginalis_%inb_Rep2 [1, 12]: 13.02%
- NFF_Activity [2, 13]: I (otherwise these were reported as inactive (I))

Compound: C[C@@H]1CCC[C@H](O)CCC/C=C/c2cc(O)cc(O)c2C(=O)O1 [Zearalenol, beta-]
- T.vaginalis_%inb_Rep1 [1, 3]: 9.54%
- T.vaginalis_%inb_Rep2 [1, 5]: 15.05%
- NFF_Activity ([2]; NFF fibroblast screen at 5 µg/mL, A = active, I = inactive): I (otherwise these were reported as inactive (I))

Compound: O=C(N[C@H](COC(=O)[C@H](Cc1ccccc1)NC(=O)c1ccccc1)Cc1ccccc1)c1ccccc1 [BIA-A1643]
- T.vaginalis_%inb_Rep1 [1, 6]: 13.09%
- T.vaginalis_%inb_Rep2 [1, 7]: 15.04%
- NFF_Activity [2, 8]: I (otherwise these were reported as inactive (I))

Compound: C=C1[C@@H](C)[C@H]2[C@H](Cc3ccccc3)NC(=O)[C@]23[C@H](OC(C)=O)[C@@H]2O[C@H]2[C@@](C)(O)C(=O)[C@@H](C)C/C=C\[C@H]3[C@@H]1O [Epoxycytochalasin D, 19,20-]
- T.vaginalis_%inb_Rep1 [1, 3]: 12.71%
- T.vaginalis_Absorbance_Rep1 [1, 4]: 0.945
- T.vaginalis_%inb_Rep2 [1, 5]: 12.22%
- T.vaginalis_Absorbance_Rep2 [1, 4]: 0.789
- NFF_Activity ([2]; NFF_NS1 screen at 5 µg/mL): I (otherwise these were reported as inactive (I))

Compound: CS(=O)(=O)c1ccc([C@@H](O)[C@H](N)CF)cc1.Cl [Florfenicol amine HCl]
- T.vaginalis_%inb_Rep1 [1, 3]: 15.67%
- T.vaginalis_Absorbance_Rep1 [1, 4]: 1
- T.vaginalis_%inb_Rep2 [1, 5]: 15.11%
- T.vaginalis_Absorbance_Rep2 [1, 4]: 0.829
- NFF_Activity ([2]; NFF_NS1 screen at 5 µg/mL): I (otherwise these were reported as inactive (I))

Compound: CO[C@H]1/C=C\C=C(/C)C(=O)NC2=CC(=O)C(NCCN(C)C)=C(C[C@@H](C)C[C@H](OC)[C@H](O)[C@@H](C)/C=C(\C)[C@@H]1OC(N)=O)C2=O [BIA-A1924]
- T.vaginalis_%inb_Rep1 [1, 6]: 5.66%
- T.vaginalis_%inb_Rep2 [1, 7]: 62.10%
- NFF_Activity [2, 8]: A (active (A) compounds having >25% inhibitory activity)

Compound: CCC(=O)CCCCCC1NC(=O)C2CCCCN2C(=O)C(C(C)CC)NC(=O)C(Cc2cn(OC)c3ccccc23)NC1=O (centres unmarked) [BIA-A1006]
- T.vaginalis_%inb_Rep1 [1, 6]: 13.25%
- T.vaginalis_%inb_Rep2 [1, 7]: 17.28%
- NFF_Activity [2, 8]: I (otherwise these were reported as inactive (I))

Compound: Cc1cc(O)c(C=O)c2c1C(=O)Oc1c(CO)c(O)c3c(c1O2)C(O)OC3=O (centres unmarked) [BIA-S1741]
- T.vaginalis_%inb_Rep1 [1, 14]: 17.25%
- T.vaginalis_%inb_Rep2 [1, 15]: 7.43%
- NFF_Activity [2, 16]: I (otherwise these were reported as inactive (I))

Compound: CC(=O)O[C@@H]1C[C@]2(C)[C@@]3(CO)[C@H](O)C(=O)C(C)=C[C@H]3O[C@H]1[C@@]21CO1 [BIA-A1925]
- T.vaginalis_%inb_Rep1 [1, 6]: 9.96%
- T.vaginalis_%inb_Rep2 [1, 7]: 14.14%
- NFF_Activity [2, 8]: I (otherwise these were reported as inactive (I))

Compound: CC[C@H](C)[C@H]1O[C@]2(CC[C@@H]1C)C[C@@H]1C[C@@H](C/C=C(\C)[C@@H](O)[C@@H](C)/C=C/C=C3\CO[C@@H]4[C@H](O)C(C)=C[C@@H](C(=O)O1)[C@]34O)O2 [BIA-I1151]
- T.vaginalis_%inb_Rep1 [1, 9]: 12.98%
- T.vaginalis_%inb_Rep2 [1, 10]: 12.38%
- NFF_Activity ([2]; NFF cells, screen at 5 µg/mL): I (otherwise these were reported as inactive (I))

Compound: COC(=O)C1=CO[C@@H](C)[C@@H]2CN3CCc4c([nH]c5cc(OC)c(OC)cc45)[C@@H]3C[C@H]12 [BIA-I1957]
- T.vaginalis_%inb_Rep1 [1, 9]: 9.33%
- T.vaginalis_%inb_Rep2 [1, 10]: 14.44%
- NFF_Activity ([2]; NFF cells, screen at 5 µg/mL): I (otherwise these were reported as inactive (I))

Compound: CO[C@H]1C[C@@H]2CC[C@@H](C)[C@@](O)(O2)C(=O)C(=O)N2CCCC[C@H]2C(=O)O[C@H]([C@H](C)C[C@@H]2CC[C@@H](OP(C)(C)=O)[C@H](OC)C2)CC(=O)[C@H](C)/C=C(\C)[C@@H](O)[C@@H](OC)C(=O)[C@H](C)C[C@H](C)/C=C/C=C/C=C/1C [BIA-R1450]
- T.vaginalis_%inb_Rep1 [1, 14]: 8.81%
- T.vaginalis_%inb_Rep2 [1, 15]: 19.01%
- NFF_Activity [2, 16]: I (otherwise these were reported as inactive (I))

Compound: CCCCCCCCCCCCCCCC(=O)C1=C(O)C(CO)OC1=O (centres unmarked) [BIA-R1082]
- T.vaginalis_%inb_Rep1 [1, 14]: 10.55%
- T.vaginalis_%inb_Rep2 [1, 15]: 12.25%
- NFF_Activity [2, 16]: I (otherwise these were reported as inactive (I))

Compound: COC(=O)c1cc(O)cc(OC)c1C(=O)c1c(O)cc(C)cc1O [BIA-S1089]
- T.vaginalis_%inb_Rep1 [1, 14]: 9.49%
- T.vaginalis_%inb_Rep2 [1, 15]: 14.81%
- NFF_Activity [2, 16]: A (active (A) compounds having >25% inhibitory activity)

Compound: COc1c(O)c2c(=O)cc3c4c5c(cc(=O)c6c(O)c(OC)c(C[C@H](C)OC(C)=O)c(c(c1C[C@H](C)OC(C)=O)c24)c65)OCO3 [Diacetylcercosporin]
- T.vaginalis_%inb_Rep1 [1, 3]: 12.65%
- T.vaginalis_Absorbance_Rep1 [1, 4]: 0.944
- T.vaginalis_%inb_Rep2 [1, 5]: 14.53%
- T.vaginalis_Absorbance_Rep2 [1, 4]: 0.821
- NFF_Activity ([2]; NFF_NS1 screen at 5 µg/mL): A (active (A) compounds having >25% inhibitory activity)

Compound: CC[C@H](C)[C@H]1O[C@]2(C=C[C@@H]1C)C[C@@H]1C[C@@H](C/C=C(\C)[C@@H](O[C@H]3C[C@H](OC)[C@@H](O[C@H]4C[C@H](OC)[C@H](NC(C)=O)[C@H](C)O4)[C@H](C)O3)[C@@H](C)/C=C/C=C3\CO[C@@H]4[C@H](O)C(C)=C[C@@H](C(=O)O1)[C@]34O)O2 [Eprinomectin B1a]
- T.vaginalis_%inb_Rep1 [1, 3]: 13.46%
- T.vaginalis_Absorbance_Rep1 [1, 4]: 0.959
- T.vaginalis_%inb_Rep2 [1, 5]: 14.17%
- T.vaginalis_Absorbance_Rep2 [1, 4]: 0.816
- NFF_Activity ([2]; NFF_NS1 screen at 5 µg/mL): I (otherwise these were reported as inactive (I))

Compound: C[C@@H]1CC[C@H](O)/C=C/C(=O)O[C@H](C)CC[C@H](O)/C=C/C(=O)O1 [Pyrenophorol]
- T.vaginalis_%inb_Rep1 [1, 11]: 10.44%
- T.vaginalis_%inb_Rep2 [1, 12]: 11.15%
- NFF_Activity [2, 13]: I (otherwise these were reported as inactive (I))

Compound: O=C1C=C2C=C[C@@H]3C[C@@]2(O1)[C@H]1CCCCN31 [BIA-S1947]
- T.vaginalis_%inb_Rep1 [1, 14]: 7.81%
- T.vaginalis_%inb_Rep2 [1, 15]: 10.30%
- NFF_Activity [2, 16]: I (otherwise these were reported as inactive (I))

Compound: Nc1ncnc2c1ncn2[C@@H]1O[C@H](C[C@@H](N)CC[C@H](N)C(=O)O)[C@@H](O)[C@H]1O [BIA-S1376]
- T.vaginalis_%inb_Rep1 [1, 14]: 11.43%
- T.vaginalis_%inb_Rep2 [1, 15]: 25.29%
- NFF_Activity [2, 16]: I (otherwise these were reported as inactive (I))

Compound: O=C(O)CC[N+](=O)[O-] [Nitropropionic acid, 3-]
- T.vaginalis_%inb_Rep1 [1, 11]: 18.00%
- T.vaginalis_%inb_Rep2 [1, 12]: 11.87%
- NFF_Activity [2, 13]: I (otherwise these were reported as inactive (I))

Compound: CCCCC(C)C=C(C)C=C(C)C(=O)NC1=CC(O)(C=CC=CC=CC(=O)NC2=C(O)CCC2=O)C2OC2C1=O (centres unmarked) [BIA-M1905]
- T.vaginalis_%inb_Rep1 [1, 9]: 10.60%
- T.vaginalis_%inb_Rep2 [1, 10]: 12.76%
- NFF_Activity ([2]; NFF cells, screen at 5 µg/mL): I (otherwise these were reported as inactive (I))

Compound: CC(/C=C/[C@@]1(C)[C@H](C)CCC(=O)[C@@H]1C)=C\Cc1c(O)c(Cl)c(C)c(C=O)c1O [BIA-A1115]
- T.vaginalis_%inb_Rep1 [1, 6]: 16.42%
- T.vaginalis_%inb_Rep2 [1, 7]: 18.08%
- NFF_Activity [2, 8]: I (otherwise these were reported as inactive (I))

Compound: COc1c(OC)c(-c2c[nH]c3ccccc23)c(OC)c(OC)c1-c1c[nH]c2ccccc12 [BIA-A1630]
- T.vaginalis_%inb_Rep1 [1, 6]: 13.41%
- T.vaginalis_%inb_Rep2 [1, 7]: 14.03%
- NFF_Activity [2, 8]: I (otherwise these were reported as inactive (I))

Compound: CC(=O)OCC1=C[C@@H]2OC(=O)C3=CO[C@@H](O[C@@H]4O[C@H](CO)[C@@H](O)[C@H](O)[C@H]4O)[C@H]1[C@@H]32 [BIA-A1774]
- T.vaginalis_%inb_Rep1 [1, 6]: 16.59%
- T.vaginalis_%inb_Rep2 [1, 7]: 15.84%
- NFF_Activity [2, 8]: I (otherwise these were reported as inactive (I))

Compound: CC[C@H]1OC(=O)[C@H](C)[C@@H](O[C@H]2C[C@@](C)(OC)[C@@H](O)[C@H](C)O2)[C@H](C)[C@@H](O[C@@H]2O[C@H](C)C[C@H](N(C)C)[C@H]2O)[C@@]2(C)CC(C)=C(O2)[C@H](C)[C@@H](O)[C@]1(C)O [Erythromycin A enol ether]
- T.vaginalis_%inb_Rep1 [1, 3]: 5.17%
- T.vaginalis_Absorbance_Rep1 [1, 4]: 0.805
- T.vaginalis_%inb_Rep2 [1, 5]: 18.87%
- T.vaginalis_Absorbance_Rep2 [1, 4]: 0.881
- NFF_Activity ([2]; NFF_NS1 screen at 5 µg/mL): I (otherwise these were reported as inactive (I))

Compound: COc1cc2c(c3oc(=O)c4c(c13)CCC4=O)[C@@H]1C=CO[C@@H]1O2 [BIA-A1232]
- T.vaginalis_%inb_Rep1 [1, 6]: 12.06%
- T.vaginalis_%inb_Rep2 [1, 7]: 5.64%
- NFF_Activity [2, 8]: I (otherwise these were reported as inactive (I))

Compound: CC(=O)O[C@@H]1[C@@H]2O[C@H]2[C@@](C)(O)C(=O)[C@@H](C)C/C=C\[C@H]2[C@H](O)C(C)=C(C)[C@H]3[C@H](Cc4ccccc4)NC(=O)[C@@]123 [Epoxycytochalasin C, 19,20-]
- T.vaginalis_%inb_Rep1 [1, 3]: 12.33%
- T.vaginalis_Absorbance_Rep1 [1, 4]: 0.938
- T.vaginalis_%inb_Rep2 [1, 5]: 16.20%
- T.vaginalis_Absorbance_Rep2 [1, 4]: 0.844
- NFF_Activity ([2]; NFF_NS1 screen at 5 µg/mL): I (otherwise these were reported as inactive (I))

Compound: COC1=C(N)C(=O)c2nc(-c3nc(C(=O)O)c(C)c(-c4cccc(OC)c4O)c3N)ccc2C1=O [BIA-S1088]
- T.vaginalis_%inb_Rep1 [1, 6]: 77.76%
- T.vaginalis_%inb_Rep2 [1, 7]: 92.91%
- NFF_Activity [2, 8]: A (active (A) compounds having >25% inhibitory activity)
